Test results taken from patent publication US9169195B2, “Amides, use of amides as solvents for organic compounds, compositions and emulsions containing amides, and method for treating a plant” (AKZO NOBEL CHEMICALS INTERNATIONAL B.V., priority 2009, dated 2015).
Where two headings read alike, the source gives them in different places.

Key:
[1] = numbers taken from the e-Pesticide Manual v 4.0; cited from earlier work
[2] = Solubility of active ingredients in the amide solvents (solvent added until dissolved, stable 24 h)
Experimental: Various agriculturally active ingredients were dissolved in both N-methyl-N-(2-propylheptyl)-formamide and N-methyl-N-(n-decyl)-formamide in order to evaluate the solubility of the active ingredients in the amides.
This was done by adding the active ingredient (AI) to a beaker and thereafter adding the solvent until the entire AI had been dissolved. The solutions were continually stirred at a temperature of 23° C. during the experiments. When everything had been dissolved, the beakers were left without stirring for 24 h to see if the solution was stable (i.e. no crystallization).

[3] = Emulsion dilution: crystallisation of tebuconazole in emulsions, ocular inspection; assay type: physicochemical; parameters: key: +: no crystals visible; −: crystals visible; conditions: 5° C.
Experimental: Formulations containing 250 g/l of tebuconazole was formulated together with 100 g/l of surfactant blend (CaDDBS and tristyrylphenol ethoxylate (15 EO), 50:50) and diluted to a final volume of one liter with each one of the solvents N,N-dimethyl decanamide, N-methyl-N-octyl propanamide, N-methyl-N-(2-propylheptyl) formamide or N-methyl-N-(n-decyl) formamide. Each formulation was emulsified into tap water at ambient temperature (˜22° C.) in the volume ratio (formulation:water) 1:100, 1:150, 1:200 and 1:500 dilution. The emulsions were poured into 100 ml conical glass centrifuge tubes and monitored over time at three different temperatures 5, 20 and 40° C. for observation of crystallisation of active ingredient (tebuconazole).
Crystallization was judged by ocular inspection with the naked eye, and in the table below, the following is used: […]

[4] = solvent N-methyl-N-(2-propylheptyl) formamide, 23° C.
[5] = solvent N-methyl-N-(n-decyl) formamide, 23° C.
[6] = 3 h, formulation:tap water 1:100, 250 g/l tebuconazole
[7] = 3 h, formulation:tap water 1:150, 250 g/l tebuconazole
[8] = 3 h, formulation:tap water 1:200, 250 g/l tebuconazole
[9] = 3 h, formulation:tap water 1:500, 250 g/l tebuconazole
[10] = 6 h, formulation:tap water 1:100, 250 g/l tebuconazole
[11] = 6 h, formulation:tap water 1:150, 250 g/l tebuconazole
[12] = 6 h, formulation:tap water 1:200, 250 g/l tebuconazole
[13] = 6 h, formulation:tap water 1:500, 250 g/l tebuconazole
[14] = 12 h, formulation:tap water 1:100, 250 g/l tebuconazole
[15] = 12 h, formulation:tap water 1:150, 250 g/l tebuconazole
[16] = 12 h, formulation:tap water 1:200, 250 g/l tebuconazole
[17] = 12 h, formulation:tap water 1:500, 250 g/l tebuconazole
[18] = 24 h, formulation:tap water 1:100, 250 g/l tebuconazole
[19] = 24 h, formulation:tap water 1:150, 250 g/l tebuconazole
[20] = 24 h, formulation:tap water 1:200, 250 g/l tebuconazole
[21] = 24 h, formulation:tap water 1:500, 250 g/l tebuconazole
[22] = 36 h, formulation:tap water 1:100, 250 g/l tebuconazole
[23] = 36 h, formulation:tap water 1:150, 250 g/l tebuconazole
[24] = 36 h, formulation:tap water 1:200, 250 g/l tebuconazole
[25] = 36 h, formulation:tap water 1:500, 250 g/l tebuconazole
[26] = 48 h, formulation:tap water 1:100, 250 g/l tebuconazole
[27] = 48 h, formulation:tap water 1:150, 250 g/l tebuconazole
[28] = 48 h, formulation:tap water 1:200, 250 g/l tebuconazole
[29] = 48 h, formulation:tap water 1:500, 250 g/l tebuconazole
[30] = 72 h, formulation:tap water 1:100, 250 g/l tebuconazole
[31] = 72 h, formulation:tap water 1:150, 250 g/l tebuconazole
[32] = 72 h, formulation:tap water 1:200, 250 g/l tebuconazole
[33] = 72 h, formulation:tap water 1:500, 250 g/l tebuconazole
[34] = 96 h, formulation:tap water 1:100, 250 g/l tebuconazole
[35] = 96 h, formulation:tap water 1:150, 250 g/l tebuconazole
[36] = 96 h, formulation:tap water 1:200, 250 g/l tebuconazole
[37] = 96 h, formulation:tap water 1:500, 250 g/l tebuconazole

SMILES	Solubility in N-Methyl-N-(2-propylheptyl) formamide [2, 4] [g Al/100 g solvent]	Crystallisation of tebuconazole in emulsion [3, 6]	Crystallisation of tebuconazole in emulsion [3, 7]	Crystallisation of tebuconazole in emulsion [3, 8]	Crystallisation of tebuconazole in emulsion [3, 9]	Crystallisation of tebuconazole in emulsion [3, 10]	Crystallisation of tebuconazole in emulsion [3, 11]	Crystallisation of tebuconazole in emulsion [3, 12]	Crystallisation of tebuconazole in emulsion [3, 13]	Crystallisation of tebuconazole in emulsion [3, 14]	Crystallisation of tebuconazole in emulsion [3, 15]	Crystallisation of tebuconazole in emulsion [3, 16]	Crystallisation of tebuconazole in emulsion [3, 17]	Crystallisation of tebuconazole in emulsion [3, 18]	Crystallisation of tebuconazole in emulsion [3, 19]	Crystallisation of tebuconazole in emulsion [3, 20]	Crystallisation of tebuconazole in emulsion [3, 21]	Crystallisation of tebuconazole in emulsion [3, 22]	Crystallisation of tebuconazole in emulsion [3, 23]	Crystallisation of tebuconazole in emulsion [3, 24]	also measured
Cc1c(COC(=O)[C@@H]2[C@H](/C=C(\Cl)C(F)(F)F)C2(C)C)cccc1-c1ccccc1 (racemic) [Bifenthrin]	>50																				Solubility in Water [1]: <0.0000001 g Al/100 g solvent; Solubility in N-Methyl-N-(n-decyl) formamide [2, 5]: >50 g Al/100 g solvent
O=C(O)COc1ccc(Cl)cc1Cl [2,4-D acid]	41																				Solubility in Water [1]: 0.0311 g Al/100 g solvent; Solubility in N-Methyl-N-(n-decyl) formamide [2, 5]: >50 g Al/100 g solvent
Cc1ccc(/N=C/N(C)/C=N/c2ccc(C)cc2C)c(C)c1 [Amitraz]	>50																				Solubility in Water [1]: <0.00001 g Al/100 g solvent; Solubility in N-Methyl-N-(n-decyl) formamide [2, 5]: >50 g Al/100 g solvent
CCCCCCCCCC(=O)N(C)C [N,N-dimethyl decanamide]		+	+	+	+	+	+	+	−	+	+	−	−	+	−	−	−	+	−	−	Crystallisation of tebuconazole in emulsion [3, 25]: −; Crystallisation of tebuconazole in emulsion [3, 26]: +; Crystallisation of tebuconazole in emulsion [3, 27]: −; Crystallisation of tebuconazole in emulsion [3, 28]: −; Crystallisation of tebuconazole in emulsion [3, 29]: −; Crystallisation of tebuconazole in emulsion [3, 30]: +; Crystallisation of tebuconazole in emulsion [3, 31]: −; Crystallisation of tebuconazole in emulsion [3, 32]: −; Crystallisation of tebuconazole in emulsion [3, 33]: −; Crystallisation of tebuconazole in emulsion [3, 34]: +; Crystallisation of tebuconazole in emulsion [3, 35]: −; Crystallisation of tebuconazole in emulsion [3, 36]: −; Crystallisation of tebuconazole in emulsion [3, 37]: −
CCCCCC(CCC)CN(C)C=O (stereo not drawn) [N-methyl-N-(2-propylheptyl) formamide, N-methyl-N-(2-propylheptyl)-formamide]		+	+	+	+	+	+	+	+	+	+	+	+	+	+	+	+	+	+	+	Crystallisation of tebuconazole in emulsion [3, 25]: +; Crystallisation of tebuconazole in emulsion [3, 26]: +; Crystallisation of tebuconazole in emulsion [3, 27]: +; Crystallisation of tebuconazole in emulsion [3, 28]: +; Crystallisation of tebuconazole in emulsion [3, 29]: +; Crystallisation of tebuconazole in emulsion [3, 30]: +; Crystallisation of tebuconazole in emulsion [3, 31]: +; Crystallisation of tebuconazole in emulsion [3, 32]: +; Crystallisation of tebuconazole in emulsion [3, 33]: +; Crystallisation of tebuconazole in emulsion [3, 34]: +; Crystallisation of tebuconazole in emulsion [3, 35]: +; Crystallisation of tebuconazole in emulsion [3, 36]: +; Crystallisation of tebuconazole in emulsion [3, 37]: +
CCCCCCCCCCN(C)C=O [N-methyl-N-(n-decyl) formamide]		+	+	+	+	+	+	+	+	+	+	+	+	+	+	+	+	+	+	+	Crystallisation of tebuconazole in emulsion [3, 25]: +; Crystallisation of tebuconazole in emulsion [3, 26]: +; Crystallisation of tebuconazole in emulsion [3, 27]: +; Crystallisation of tebuconazole in emulsion [3, 28]: +; Crystallisation of tebuconazole in emulsion [3, 29]: +; Crystallisation of tebuconazole in emulsion [3, 30]: +; Crystallisation of tebuconazole in emulsion [3, 31]: +; Crystallisation of tebuconazole in emulsion [3, 32]: +; Crystallisation of tebuconazole in emulsion [3, 33]: +; Crystallisation of tebuconazole in emulsion [3, 34]: +; Crystallisation of tebuconazole in emulsion [3, 35]: +; Crystallisation of tebuconazole in emulsion [3, 36]: +; Crystallisation of tebuconazole in emulsion [3, 37]: +
CCCCCCCCN(C)C(=O)CC [N-methyl-N-octyl propanamide]		+	+	+	+	+	+	+	−	+	+	−	−	+	+	−	−	+	+	−	Crystallisation of tebuconazole in emulsion [3, 25]: −; Crystallisation of tebuconazole in emulsion [3, 26]: +; Crystallisation of tebuconazole in emulsion [3, 27]: −; Crystallisation of tebuconazole in emulsion [3, 28]: −; Crystallisation of tebuconazole in emulsion [3, 29]: −; Crystallisation of tebuconazole in emulsion [3, 30]: +; Crystallisation of tebuconazole in emulsion [3, 31]: −; Crystallisation of tebuconazole in emulsion [3, 32]: −; Crystallisation of tebuconazole in emulsion [3, 33]: −; Crystallisation of tebuconazole in emulsion [3, 34]: +; Crystallisation of tebuconazole in emulsion [3, 35]: −; Crystallisation of tebuconazole in emulsion [3, 36]: −; Crystallisation of tebuconazole in emulsion [3, 37]: −
CC(C)(C)C(O)(CCc1ccc(Cl)cc1)Cn1cncn1 (stereo not drawn) [Tebuconazole]	48																				Solubility in N-Methyl-N-(n-decyl) formamide [2]: 48 g Al/100 g solvent
CON=C(C(=O)OC)c1ccccc1CON=C(C)c1cccc(C(F)(F)F)c1 [Trifloxystrobin]																					Solubility in N-Methyl-N-(2-propylheptyl) formamide [2]: 23 g Al/100 g solvent; Solubility in N-Methyl-N-(n-decyl) formamide [2]: 23 g Al/100 g solvent
